Laboratory results from PubChem BioAssay (NCI).
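Each compound was tested at five concentrations against cells in 96-well plates for 48 hours. TGI denotes the concentration required for complete inhibition of growth.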

Tests used:
Assay in all cases: NCI anticancer screen, dose series, 48 h
[1] = system: HOP-92 NSCLC
[2] = system: SNB-75 CNS
[3] = system: SN12C renal
[4] = system: M19-MEL melanoma
[5] = system: K-562 leukemia
[6] = system: UACC-257 melanoma
[7] = system: SNB-78 CNS
[8] = system: COLO 205 colon
[9] = system: NCI-H226 lung
[10] = system: HCT-116 colon
[11] = system: SW-620 colon
[12] = system: DMS 114 small cell lung
[13] = system: IGROV1 ovarian
[14] = system: HT29 colon
[15] = system: DLD-1 colon
[16] = system: HCC-2998 colon
[17] = system: KM12 colon
[18] = system: UACC-62 melanoma
[19] = system: SK-MEL-5 melanoma
[20] = system: CAKI-1 renal
[21] = system: SR leukemia
[22] = system: KM20L2 colon
[23] = system: RXF 393 renal
[24] = system: SF-295 CNS
[25] = system: M14 melanoma
[26] = system: OVCAR-3 ovarian
[27] = system: OVCAR-8 ovarian
[28] = system: LOX IMVI melanoma
[29] = system: OVCAR-4 ovarian
[30] = system: HL-60(TB) leukemia
[31] = system: ACHN renal
[32] = system: TK-10 renal
[33] = system: NCI-H23 lung
[34] = system: U251 CNS
[35] = system: SF-268 CNS
[36] = system: A549 NSCLC
[37] = system: DMS 273 small cell lung
[38] = system: SNB-19 CNS
[39] = system: HOP-18 NSCLC
[40] = system: UO-31 renal
[41] = system: MOLT-4 leukemia
[42] = system: EKVX NSCLC
[43] = system: XF 498 CNS
[44] = system: RPMI-8226 leukemia
[45] = system: 786-0 renal
[46] = system: NCI-H460 lung
[47] = system: SK-MEL-2 melanoma
[48] = system: SK-OV-3 ovarian
[49] = system: MALME-3M melanoma
[50] = system: SF-539 CNS
[51] = system: OVCAR-5 ovarian
[52] = system: SK-MEL-28 melanoma
[53] = system: CCRF-CEM leukemia
[54] = system: A498 renal
[55] = system: HCT-15 colon
[56] = system: NCI-H522 lung
[57] = system: LXFL 529 NSCLC

Measured: TGI

CCCc1c(C(=O)OCC)[nH]c(C(=O)CCC(=O)c2[nH]c(C(=O)OCC)c(CCC)c2C(=O)OCC)c1C(=O)OCC
62.5 µM: [2]
> 100 µM: all other assays above

O=NN(CCCl)C(=O)N[C@H]1CCCC[C@@H]1Cl
42.7 µM: [30]
17 µM: [21]
43.7 µM: [53]
not listed: [6] | [7] | [18] | [28] | [51]
> 100 µM: all other assays above
